Patent publication US9770026B2, “Substituted pyrimidine compound and uses thereof” (Shenyang Sinochem Agrochemicals R&D Co., Ltd., priority 2012, dated 2017)

How the values were obtained:
carmine spider mite = test: bioactivity test against carmine spider mite, airbrush spray; assay type: in vivo; details: Tetranychus cinnabarinus, 72 h, contrastive test, read-out: Insecticidal activity against carmine spider mite (% ); for pest or weed control at 600 µg/mL: 600 mg/L
Outline: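 Broadbean seedlings infested with adult mites were sprayed with compound (acetone/methanol stock diluted in 0.1% Tween 80 water) by airbrush at 0.7 kg/cm^2, 0.5 ml. Three replicates were run. Mortality was scored after 72 hrs.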

[1] = system: Green peach aphids (Myzus Persicae Sulzer); test: bioactivity test against green peach aphid, airbrush foliar spray; assay type: in vivo; details: Myzus persicae, foliar, 48 h, contrastive test, read-out: Insecticidal activity against peach aphid (%); for pest or weed control at 600 µg/mL: 600 mg/L; for pest or weed control at 10 µg/mL: 10 mg/L; for pest or weed control at 100 µg/mL: 100 mg/L
Outline: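 Aphids (15-30 per cabbage leaf disc) on moist filter paper were airbrush-sprayed at 10 psi, 0.5 mL, with compound from acetone:methanol (1:1) diluted in water with 0.1% tween 80. Held at 25±1 C, 60±5% RH; survivors counted after 48 hrs to give death rates.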

cucumber gray mold = test: fungicidal activity in vitro (inhibition rate) against cucumber gray mold; assay type: cell-based; details: 25 ppm, in vitro; read-out: inhibition rate against cucumber gray mold
wheat powdery mildew = test: protectant activity in vivo against wheat powdery mildew; details: Triticum aestivum, 168 h, read-out: control effect against wheat powdery mildew (%), 400 mg/L; protectant activity
corn rust = test: protectant activity in vivo against corn rust; details: Zea mays, 168 h, read-out: control effect against corn rust (%), 400 mg/L; protectant activity
rice blast = test: microbe, parasite or virus in culture; assay type: cell-based; details: Pyricularia oryzae; for inhibition at 25 ppm: read-out: inhibition rate against rice blast, 25 ppm, in vitro
Diamond back moth = test: insecticidal activity against diamond back moth, airbrush spray; assay type: in vivo; details: 72 h, 600 mg/L
Outline: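 Airbrush leaf-disc spray test: both faces of 2 cm cabbage discs received 0.5 ml of test solution at 0.7 kg/cm^2. Solutions were made in acetone:methanol (1:1) and brought to concentration with 0.1% Tween 80 in water. Ten second-instar larvae per disc, triplicates, were held at 25° C and 60˜70% R.H., with mortality recorded at 72 hrs.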

armyworm = test: bioactivity test against armyworm, airbrush spray; assay type: in vivo; details: 72 h, read-out: Insecticidal activity against armyworm (%); for pest or weed control at 600 µg/mL: 600 mg/L
cucumber downy mildew = test: protectant activity in vivo against cucumber downy mildew; details: Cucumis sativus, 168 h, protectant activity; for pest or weed control at 400 µg/mL: read-out: control effect against cucumber downy mildew (%), 400 mg/L; for pest or weed control at 25 µg/mL: read-out: control effect against cucumber downy mildew (%), 25 mg/L; for pest or weed control at 50 µg/mL: read-out: control effect against cucumber downy mildew (%), 50 mg/L; for pest or weed control at 100 µg/mL: read-out: control effect against cucumber downy mildew (%), 100 mg/L

SMILES	pest or weed control at 600 µg/mL (carmine spider mite) [%]	pest or weed control at 600 µg/mL [1] [%]	inhibition at 25 ppm (cucumber gray mold) [%]	pest or weed control at 400 µg/mL (wheat powdery mildew) [%]	pest or weed control at 400 µg/mL (corn rust) [%]	inhibition at 25 ppm (rice blast) [%]	pest or weed control at 600 µg/mL (Diamond back moth) [%]	pest or weed control at 10 µg/mL (armyworm; 10 mg/L) [%]	pest or weed control at 100 µg/mL (armyworm; 100 mg/L) [%]	pest or weed control at 600 µg/mL (armyworm) [%]	pest or weed control at 400 µg/mL (cucumber downy mildew) [%]	pest or weed control at 10 µg/mL [1] [%]	pest or weed control at 100 µg/mL [1] [%]	inhibition at 8.3 ppm (rice blast; read-out: inhibition rate against rice blast, 8.3 ppm, in vitro) [%]	pest or weed control at 25 µg/mL (cucumber downy mildew) [%]	pest or weed control at 50 µg/mL (cucumber downy mildew) [%]	pest or weed control at 100 µg/mL (cucumber downy mildew) [%]	pest or weed control at 10 µg/mL (carmine spider mite; 10 mg/L) [%]	pest or weed control at 100 µg/mL (carmine spider mite; 100 mg/L) [%]
Cc1ncnc(NCc2ccc(Oc3nc(Cl)c(Cl)cc3Cl)cc2)c1Cl [CK33, reference compound]	41	0	0	0	0	< 50	29	0	0	100	0								
CCC(Nc1nc(Cl)nc(C(=O)OC)c1Cl)c1ccc(Oc2ncc(C(F)(F)F)cc2Cl)cc1 (centres unmarked) [CK35, reference compound]	0	0	0	0	0	< 50	0			0	60								
Cc1nc(C)c(Cl)c(NCc2ccc(OCc3ccccc3)cc2)n1 [CK52, reference compound]	44	88	0	0	85		20			0	100	0	0	0	70	90	98		
CCc1ncnc(NC(=O)Cc2ccc(Oc3ccc(C(F)(F)F)cn3)cc2)c1Cl [CK55, reference compound]	0	0	0	60	0	< 50	0			0	100				0	0	0		
Cc1ncnc(NC(=O)Cc2ccc(Oc3ccc(C(F)(F)F)cn3)cc2)c1Cl [CK56, reference compound]	32	100	< 50	70	70	< 50	0			0	100	0	0		0	0	10	0	25
